{"source": "patent US8575094B2", "about": "“Use of type-B lantibiotic-based compounds having antimicrobial activity” (Novacta Biosystems Limited, priority 2007, dated 2013)", "key": {"[1]": {"test": "Stability in Simulated Gastric Fluid (SGF), HPLC", "format": "in vitro ADME", "conditions": "37° C.", "excerpt": "(§1) The preferred method of dosage for the treatment of C. difficile infections is via the oral route of administration. […] Whilst the oral absorption of peptides and related substances of a molecular weight >1,000 Daltons is generally low, metabolism through peptidase enzymes is generally rapid and indeed forms an essential part of the normal digestion of food. The susceptibility of peptides towards enzymatic digestion in the stomach and intestine can reliably be estimated in vitro by measuring their stability in Simulated Gastric Fluid USP ([…], pepsin in saline, pH 1.2) and Simulated Intestinal Fluid USP (SIF, pancreatin in aqueous potassium dihydrogen phosphate, pH 6.8).\n(§2) Nisin and mersacidin were tested for their susceptibility towards enzymatic digestion in the stomach and intestine. The SGF and SIF were based on the standard USP solutions for simulated gastric and simulated intestinal fluids and their activity confirmed against Bovine Serum Albumin (Hilger et al, 2001). The compounds were incubated in SGF or SIF at 37° C. and their concentrations quantified by analytical HPLC (UV detection at 210 nm). The potential degradation of each compound was also monitored qualitatively by measuring in vitro antibacterial activity against Micrococcus luteus."}, "[2]": {"test": "Stability in Simulated Intestinal Fluid (SIF), HPLC", "format": "in vitro ADME", "conditions": "37° C.", "excerpt": "as §1, §2"}, "[3]": {"system": "C. difficile strain VPI 10463", "format": "in vivo", "conditions": "hamster, three times daily at 50 mg/kg/day, 5-day dosing period", "experimental": "The in vivo efficacy of two type B Lantibiotics in the treatment of C. difficile infections was evaluated in the standard animal model for CDAD: clindamycin-induced cecitis in hamster (FIG. 3). Four groups of six animals were dosed orally with approximately 10^7 cells of C. difficile strain VPI 10463 and 24 hours later with a subcutaneous dose of 10 mg/kg clindamycin phosphate."}, "Micrococcus luteus": {"system": "Micrococcus luteus", "test": "In vitro antibacterial activity against Micrococcus luteus during SGF/SIF incubation", "format": "cell-based", "conditions": "incubation in SGF or SIF at 37° C.", "experimental": "as §2"}, "C. difficile spores": {"system": "C. difficile spores", "test": "Sporicidal activity: viable counts of C. difficile spores exposed to antibiotics", "format": "cell-based", "conditions": "for Viable counts of C. difficile spores: antibiotic at 100 µg/ml", "excerpt": "An agent capable of killing, or preventing the successful germination of C. difficile spores would therefore be of considerable interest. To determine the effects of type B lantibiotics on C. difficile spores, suspensions of spores were exposed to antibiotics ([…]) and aliquots were taken at appropriate time points. The spores in each aliquot were filtered off and plated out on to Brazier's agar."}, "C. difficile 630": {"system": "C. difficile 630", "conditions": "hamster, three times daily at 50 mg/kg/day for 5 days, groups of 6", "experimental": "The in vivo efficacy of compound VII in the treatment of C. difficile infections was evaluated in the clindamycin-induced cecitis model in hamster (FIG. 4). Groups of 6 animals were given a subcutaneous dose of 10 mg/kg clindamycin phosphate. 24 hours later, the animals received oral inocula of ˜10^4 spores of C. difficile 630, prepared by heating overnight BHI culture fluids to 56° C. for 10 min and recovering spores by centrifugation and re-suspension of the pellet in an equal volume of PBS."}, "[4]": {"conditions": "rat, 100 mg/kg oral", "procedure": "Male Sprague-Dawley rats were dosed with compound VII at 100 mg/kg via the oral route. Faeces and urine were collected over a 48 h period in two batches (24 h and 48 h post dose). Blood samples were taken at various time points for the first 24 h."}, "Clostridium difficile": {"system": "Clostridium difficile", "test": "microbe, parasite or virus in culture", "format": "cell-based", "conditions": "for MIC: Clostridioides difficile, read-out: Minimal Inhibitory Concentration (MIC)", "excerpt": "Compounds I to VII were screened against twelve clinical isolates of Clostridium difficile.\nIn addition, compounds L to LIII were screened against […] isolates of Clostridium difficile."}, "[5]": {"system": "Bifidobacterium adolescentis NCTC 11814"}, "[6]": {"system": "Bifidobacterium longum NCTC 11818"}, "[7]": {"system": "Bacteroides fragilis NCTC 9343"}, "[8]": {"system": "Bacteroides thetaiotaomicron NCTC 10582"}}, "note": "Where two headings read alike, the source gives them in different places."}
{"smiles": "CC[C@H](C)[C@@H]1NC(=O)[C@H](C(C)C)NC(=O)[C@@H]2NC(=O)CNC(=O)[C@@H]3CS[C@@H](C)[C@@H](NC(=O)[C@@H]4CSC[C@@H](N)C(=O)N[C@@H](CO)C(=O)NCC(=O)N[C@@H](Cc5c[nH]c6ccccc56)C(=O)N[C@@H](C(C)C)C(=O)N4)C(=O)N[C@@H](CC(C)C)C(=O)N[C@@H](C(=O)N[C@@H]([C@@H](C)CC)C(=O)N[C@@H](CCC(=O)O)C(=O)N3)[C@H](C)SC[C@H](NC1=O)C(=O)N[C@@H](C)C(=O)N[C@H](C(=O)NCCO)C[S+]([O-])[C@H]2C", "note": "(stereo partly shown) [Compound VI, Actagardine N-[2-ethanolamine] monocarboxamide]", "values": [{"measurement": "Stability (degradation) in Simulated Gastric Fluid", "setting": "[1]", "value": "None of the compounds showed appreciable degradation"}, {"measurement": "Stability (degradation) in Simulated Intestinal Fluid", "setting": "[2]", "value": "essentially stable"}, {"measurement": "Survival of infected animals", "setting": "[3]", "value": "survived for the duration of the entire 5-day dosing period"}]}
{"smiles": "C=C1NC(=O)[C@@H]2NC(=O)[C@H](CC(C)C)NC(=O)[C@H](NC(=O)[C@@H]3CS[C@@H](C)[C@@H](NC(=O)[C@H](Cc4ccccc4)NC(=O)[C@@H]4NC(=O)[C@@H](N)CS[C@H]4C)C(=O)N[C@@H](CC(C)C)C(=O)N4CCC[C@H]4C(=O)NCC(=O)NCC(=O)NCC(=O)NCC(=O)N[C@@H](C(C)C)C(=O)N3)[C@H](C)SC[C@H](NC(=O)[C@H](CCC(=O)O)NC1=O)C(=O)N[C@@H]([C@@H](C)CC)C(=O)N/C=C\\S[C@H]2C", "note": "[Compound I, Mersacidin]", "values": [{"measurement": "Stability (degradation) in Simulated Gastric Fluid", "setting": "[1]", "value": "None of the compounds showed appreciable degradation"}, {"measurement": "Stability (degradation) in Simulated Intestinal Fluid", "setting": "[2]", "value": "essentially stable"}, {"measurement": "In vitro activity against M. luteus during the course of the experiment", "setting": "Micrococcus luteus", "value": "remained unaltered"}, {"measurement": "Effect on C. difficile spore viability / germination", "setting": "C. difficile spores", "value": "inactivate or prevent C. difficile spores from germinating"}, {"measurement": "Viable counts of C. difficile spores", "setting": "C. difficile spores; time 0 h", "value": 177}, {"measurement": "Viable counts of C. difficile spores", "setting": "C. difficile spores; time 4 h", "value": 0}, {"measurement": "Viable counts of C. difficile spores", "setting": "C. difficile spores; time 8 h", "value": 0}, {"measurement": "Viable counts of C. difficile spores", "setting": "C. difficile spores; time 24 h", "value": 0}]}
{"smiles": "CC[C@H](C)[C@@H]1NC(=O)[C@@H]2NC(=O)[C@H](CC(C)C)NC(=O)[C@H](NC(=O)[C@@H]3CSC[C@@H](N)C(=O)N[C@@H](CO)C(=O)NCC(=O)N[C@@H](Cc4c[nH]c5ccccc45)C(=O)N[C@@H](C(C)C)C(=O)N3)[C@H](C)SC[C@H](NC(=O)[C@H](CCC(=O)O)NC1=O)C(=O)NCC(=O)N[C@H]1C(=O)N[C@@H](CC(C)C)C(=O)N[C@@H](C(C)C)C(=O)N[C@@H](CS[C@H]2C)C(=O)N[C@@H](C)C(=O)N[C@H](C(=O)NCCO)CS[C@H]1C", "note": "[Compound VII, Deoxy-actagardine B N-[2-ethanolamine] monocarboxamide]", "values": [{"measurement": "Stability (degradation) in Simulated Gastric Fluid", "setting": "[1]", "value": "None of the compounds showed appreciable degradation"}, {"measurement": "Survival of infected animals", "setting": "C. difficile 630", "value": "all 6 of the infected mice survived"}, {"measurement": "Material recovered from plasma", "setting": "[4]", "value": "No material was recovered"}, {"measurement": "Material recovered from urine", "setting": "[4]; urine collected over 48 h", "value": "No material was recovered"}]}
{"smiles": "Cc1ncc([N+](=O)[O-])n1CCO", "note": "[Metronidazole]", "values": [{"measurement": "MIC", "setting": "Clostridium difficile; C. difficile strain 027C", "value": 0.25, "unit": "µg/mL"}, {"measurement": "MIC", "setting": "Clostridium difficile; C. difficile strain 27SM", "value": 0.125, "unit": "µg/mL"}, {"measurement": "MIC", "setting": "Clostridium difficile; C. difficile strain 19126", "value": 0.25, "unit": "µg/mL"}, {"measurement": "MIC", "setting": "Clostridium difficile; C. difficile strain 37779", "value": 0.125, "unit": "µg/mL"}, {"measurement": "MIC", "setting": "Clostridium difficile; C. difficile strain B32", "value": 0.125, "unit": "µg/mL"}, {"measurement": "MIC", "setting": "Clostridium difficile; C. difficile strain E4", "value": 0.25, "unit": "µg/mL"}, {"measurement": "MIC", "setting": "Clostridium difficile; C. difficile strain E16", "value": 8, "unit": "µg/mL"}, {"measurement": "MIC", "setting": "Clostridium difficile; C. difficile strain E101", "value": 0.125, "unit": "µg/mL"}, {"measurement": "MIC", "setting": "Clostridium difficile; C. difficile strain P24", "value": 0.25, "unit": "µg/mL"}, {"measurement": "MIC", "setting": "Clostridium difficile; C. difficile strain P49", "value": 0.125, "unit": "µg/mL"}, {"measurement": "MIC", "setting": "Clostridium difficile; C. difficile strain P59", "value": 0.25, "unit": "µg/mL"}, {"measurement": "MIC", "setting": "Clostridium difficile; C. difficile strain P62", "value": 0.25, "unit": "µg/mL"}, {"measurement": "Effect on C. difficile spore viability / germination", "setting": "C. difficile spores", "value": "no significant effect on spore viability"}, {"measurement": "Viable counts of C. difficile spores", "setting": "C. difficile spores; time 0 h", "value": 177}, {"measurement": "Viable counts of C. difficile spores", "setting": "C. difficile spores; time 4 h", "value": 154}, {"measurement": "Viable counts of C. difficile spores", "setting": "C. difficile spores; time 8 h", "value": 144}, {"measurement": "Viable counts of C. difficile spores", "setting": "C. difficile spores; time 24 h", "value": 120}]}
{"smiles": "C=C1NC(=O)[C@@H]2NC(=O)[C@H](CC(C)C)NC(=O)[C@H](NC(=O)[C@@H]3CS[C@@H](C)[C@@H](NC(=O)[C@H](Cc4c[nH]c5ccccc45)NC(=O)[C@@H]4NC(=O)[C@@H](N)CS[C@H]4C)C(=O)N[C@@H](CC(C)C)C(=O)N4CCC[C@H]4C(=O)NCC(=O)NCC(=O)NCC(=O)NCC(=O)N[C@@H](C(C)C)C(=O)N3)[C@H](C)SC[C@H](NC(=O)[C@H](CCC(=O)O)NC1=O)C(=O)N[C@@H](C(C)CC)C(=O)N/C=C\\S[C@H]2C", "note": "(stereo partly shown) [Compound IV, F3W Mersacidin]", "values": [{"measurement": "Minimal Inhibitory Concentration (MIC)", "setting": "Clostridium difficile", "value": 2, "unit": "µg/mL"}, {"measurement": "Survival of infected animals", "setting": "[3]", "value": "survived for the duration of the entire 5-day dosing period"}, {"measurement": "Minimal Inhibitory Concentration (MIC)", "setting": "E. coli", "value": ">64", "unit": "µg/mL"}, {"measurement": "Minimal Inhibitory Concentration (MIC)", "setting": "E. faecium", "value": 32, "unit": "µg/mL"}, {"measurement": "Minimal Inhibitory Concentration (MIC)", "setting": "[5]", "value": 32, "unit": "µg/mL"}, {"measurement": "Minimal Inhibitory Concentration (MIC)", "setting": "[6]", "value": 16, "unit": "µg/mL"}, {"measurement": "Minimal Inhibitory Concentration (MIC)", "setting": "[7]", "value": 32, "unit": "µg/mL"}, {"measurement": "Minimal Inhibitory Concentration (MIC)", "setting": "[8]", "value": 16, "unit": "µg/mL"}]}
